Patent US10919859B2, “Benzylaminopyridylcyclopropanecarboxylic acids, pharmaceutical compositions and uses thereof” (Boehringer Ingelheim International GmbH, priority 2017, dated 2021)
In brackets after ≈: the same amount, converted by molar mass.

Experiments:
[1] = molecular target: human GPR40 receptor (Homo sapiens (Human), UniProt O14842); experiment: IP1 accumulation measurements using the IPOne assay system; format: cell-based; conditions: 1321N1 cells stably expressing human GPR40, 1 h at 37° C.
Method: IP1 accumulation measurements using the IPOne assay system—1321N1 cells stably expressing human GPR40 receptor (Euroscreen, Belgium) are seeded 24 h before the assay in white 384-well plates in culture medium containing 10% FCS, 1% Na-Pyruvate and 400 μg/mL G418. IP1 is assayed according to the manufacturer's description (Cisbio Bioassays, France). In brief, the assay is started by substitution of the culture medium by stimulation buffer (Hepes 10 mM, CaCl2 1 mM, MgCl2 0.5 mM, KCl 4.2 mM, NaCl 146 mM, glucose 5.5 mM and LiCl 50 mM, pH 7.4). Cells are stimulated for 1 h at 37° C., 5% CO2 by addition of the compounds that are diluted in stimulation buffer containing LiCl. Assays are stopped by adding HTRF-conjugates (IP1-d2 and Anti-IP1 cryptate Tb) and lysis buffer, provided by the manufacturer. After an incubation time of 1 h at room temperature plates are measured using an EnVision™, Perkin Elmer. The obtained fluorescence ratios at 665/615 […] are then used to calculate the pEC50 values using Assay Explorer 3.3 Software (Accelrys, Inc.) by interpolation using an IP1 reference curve and subsequent sigmoidal curve fitting allowing for a variable hill slope.

[2] = Aqueous solubility (buffer vs acetonitrile/water, LC-UV); format: physicochemical; conditions: for solubility at 24 h: aqueous buffer, kinetic from dmso stock
Method: The aqueous solubility of the compounds of the invention is determined by comparing the amount dissolved in buffer to the amount in an acetonitrile/water (1/1) solution. Starting from a 10 mM DMSO stock solution aliquots are diluted with acetonitrile/water (1/1) or buffer, respectively. After 24 h of shaking, the solutions are filtrated and analyzed by LC-UV. The amount dissolved in buffer is compared to the amount in the acetonitrile solution.

[3] = pH 2.2 buffer, 24 h shaking, 2.5% DMSO, reference examples of WO 2013/178575
[4] = pH 2.2 buffer, 24 h shaking, 2.5% DMSO, examples in this invention

Sequence of human GPR40 receptor (O14842 whole entry): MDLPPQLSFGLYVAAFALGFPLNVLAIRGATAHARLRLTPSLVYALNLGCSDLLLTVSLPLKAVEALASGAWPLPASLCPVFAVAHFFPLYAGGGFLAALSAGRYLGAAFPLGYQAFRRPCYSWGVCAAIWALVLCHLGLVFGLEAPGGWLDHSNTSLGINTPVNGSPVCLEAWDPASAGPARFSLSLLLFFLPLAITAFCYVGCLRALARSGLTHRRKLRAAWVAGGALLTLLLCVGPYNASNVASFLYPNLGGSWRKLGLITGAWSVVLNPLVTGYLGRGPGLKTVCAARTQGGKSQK

## CNC(=O)c1cc(C)c(-c2ccc(F)c(CNc3ccc([C@H]4C[C@@H]4C(=O)O)nc3)c2)c(C)c1 [Example 43]
[1]
  EC50: 358 nM
[2]; pH 2.2
  Solubility at pH value 2.2: 84 μg/mL

## Cc1cc(OC2CCOCC2)cc(C)c1-c1ccc(F)c(CNc2ccc([C@H]3C[C@@H]3C(=O)O)nc2)c1 [Example 20]
[1]
  EC50: 35 nM
[2]; pH 2.2
  Solubility at pH value 2.2: 66 μg/mL

## Cc1cc(C#N)cc(C)c1-c1ccc(F)c(CNc2ccc([C@H]3C[C@@H]3C(=O)O)nc2)c1 [Example 57]
[1]
  EC50: 91 nM
[2]; pH 2.2
  Solubility at pH value 2.2: 59 μg/mL

## Cc1cc(C(=O)O)cc(C)c1-c1ccc(F)c(CNc2ccc([C@H]3C[C@@H]3C(=O)O)nc2)c1 [Example 45]
[1]
  EC50: 3660 nM
[2]; pH 2.2
  Solubility at pH value 2.2: 69 μg/mL

## Cc1cc(OCCC(C)(C)O)cc(C)c1-c1ccc(F)c2c1CC[C@H]2Oc1ccc([C@H]2C[C@@H]2C(=O)O)cc1 [WO 2013/178575 Example 17, reference compound]
[2]; [3]
  solubility at 24 h: < 1 µg/mL

## Cc1cc(C(N)=O)cc(C)c1-c1ccc(F)c(CNc2ccc([C@H]3C[C@@H]3C(=O)O)nc2)c1 [Example 27]
[1]
  EC50: 401 nM
[2]; pH 2.2
  Solubility at pH value 2.2: 62 μg/mL

## COc1cc(OC)c(Cl)c(-c2ccc(F)c(CNc3ccc([C@H]4C[C@@H]4C(=O)O)nc3)c2)c1Cl [Example 28]
[1]
  EC50: 30 nM
[2]; pH 2.2
  Solubility at pH value 2.2: 18 μg/mL

## Cc1cc(-c2ccn(C)c(=O)c2)cc(C)c1-c1ccc(F)c(CNc2ccc([C@H]3C[C@@H]3C(=O)O)nc2)c1 [Example 17]
[1]
  EC50: 18 nM
[2]; pH 2.2
  Solubility at pH value 2.2: 73 μg/mL

## N#CC1(c2ccccc2-c2ccc(F)c(CNc3ccc([C@H]4C[C@@H]4C(=O)O)nc3)c2)CC1 [Example 29]
[1]
  EC50: 696 nM
[2]; pH 2.2
  Solubility at pH value 2.2: 57 μg/mL

## O=C(O)[C@H]1C[C@@H]1c1ccc(NCc2cc(-c3c(F)cc(F)cc3F)ccc2F)cn1 [Example 23]
[1]
  EC50: 505 nM
[2]; pH 2.2
  Solubility at pH value 2.2: 53 μg/mL

## O=C(O)[C@H]1C[C@@H]1c1ccc(NCc2cc(-c3ccccc3C(F)(F)F)ccc2F)cn1 [Example 37]
[1]
  EC50: 38 nM
[2]; pH 2.2
  Solubility at pH value 2.2: 68 μg/mL

## O=C(O)[C@H]1C[C@@H]1c1ccc(NCc2ccc(C(F)(F)F)c(-c3ccc(OCC4CC4)cc3)c2)cn1 [Example 3, (1S,2S)-2-{5-[(4′-Cyclopropylmethoxy-6-trifluoromethyl-biphenyl-3-ylmethyl)-amino]-pyridin-2-yl}-cyclopropanecarboxylic acid]
[1]
  EC50: 22 nM
[2]; [4]
  solubility at 24 h: 22 µg/mL (≈ 45.6 µM)

## Cc1cc(-c2nnn(C)n2)cc(C)c1-c1ccc(F)c(CNc2ccc([C@H]3C[C@@H]3C(=O)O)nc2)c1 [Example 11]
[1]
  EC50: 8 nM
[2]; pH 2.2
  Solubility at pH value 2.2: 56 μg/mL

## Cc1cc(OCC(C)(C)O)cc(C)c1-c1ccc(F)c(CNc2ccc([C@H]3C[C@@H]3C(=O)O)nc2)c1 [Example 21]
[1]
  EC50: 101 nM
[2]; pH 2.2
  Solubility at pH value 2.2: 82 μg/mL

## Cc1cc(O[C@H]2CCOC2)cc(C)c1-c1ccc(F)c(CNc2ccc([C@H]3C[C@@H]3C(=O)O)nc2)c1 [Example 25]
[1]
  EC50: 28 nM
[2]; pH 2.2
  Solubility at pH value 2.2: 69 μg/mL

## O=C(O)[C@H]1C[C@@H]1c1ccc(NCc2ccc(C(F)(F)F)c(-c3ccc(OC(F)(F)F)cc3)c2)cn1 [Example 4, (1S,2S)-2-{5-[(4′-Trifluoromethoxy-6-trifluoromethyl-biphenyl-3-ylmethyl)-amino]-pyridin-2-yl}-cyclopropanecarboxylic acid]
[1]
  EC50: 44 nM
[2]; [4]
  solubility at 24 h: 14 µg/mL (≈ 28.2 µM)

## Cc1cc(OCC2CCOC2)cc(C)c1-c1ccc(F)c(CNc2ccc([C@H]3C[C@@H]3C(=O)O)nc2)c1 (stereo partly drawn) [Example 26]
[1]
  EC50: 39 nM
[2]; pH 2.2
  Solubility at pH value 2.2: 70 μg/mL

## Cc1cc(-c2ccn(C)c(=O)c2)cc(C)c1-c1ccc(F)c(CNc2ccc([C@H]3C[C@@H]3C(=O)O)nc2)c1 [Example 16]
[1]
  EC50: 29 nM
[2]; pH 2.2
  Solubility at pH value 2.2: 79 μg/mL

## O=C(O)[C@H]1C[C@@H]1c1ccc(NCc2cc(-c3c(F)cc(OC4CC4)cc3F)ccc2F)cn1 [Example 33]
[1]
  EC50: 297 nM
[2]; pH 2.2
  Solubility at pH value 2.2: 53 μg/mL

## COc1cc(-c2cc(C)c(-c3ccc(F)c(CNc4ccc([C@H]5C[C@@H]5C(=O)O)nc4)c3)c(C)c2)ccn1 [Example 47]
[1]
  EC50: 5 nM
[2]; pH 2.2
  Solubility at pH value 2.2: 57 μg/mL

## Cc1cc(OCCC(C)(C)O)cc(C)c1-c1ccc(F)c(CNc2ccc([C@H]3C[C@@H]3C(=O)O)nc2)c1 [Example 19]
[1]
  EC50: 27 nM
[2]; pH 2.2
  Solubility at pH value 2.2: 81 μg/mL

## CCc1cccc(CC)c1-c1ccc(F)c(CNc2ccc([C@H]3C[C@@H]3C(=O)O)nc2)c1 [Example 53]
[1]
  EC50: 57 nM
[2]; [4]
  Solubility at pH value 2.2: 50 μg/mL

## Cc1cc(O[C@@H]2CCOC2)cc(C)c1-c1ccc(F)c(CNc2ccc([C@H]3C[C@@H]3C(=O)O)nc2)c1 [Example 24]
[1]
  EC50: 44 nM
[2]; pH 2.2
  Solubility at pH value 2.2: 64 μg/mL

## N#Cc1cccc(C#N)c1-c1ccc(F)c(CNc2ccc([C@H]3C[C@@H]3C(=O)O)nc2)c1 [Example 38]
[1]
  EC50: > 10000 nM
[2]; pH 2.2
  Solubility at pH value 2.2: >83 μg/mL

## Nc1cc(F)c(-c2ccc(F)c(CNc3ccc([C@H]4C[C@@H]4C(=O)O)nc3)c2)c(F)c1 [Example 34]
[1]
  EC50: 1450 nM
[2]; pH 2.2
  Solubility at pH value 2.2: 79 μg/mL

## Cc1cccc(C)c1-c1ccc(F)c(CNc2ccc([C@H]3C[C@@H]3C(=O)O)nc2)c1 [Example 41]
[1]
  EC50: 41 nM
[2]; pH 2.2
  Solubility at pH value 2.2: 59 μg/mL

## CC(C)(O)CCOc1ccc(-c2cc(CNc3ccc([C@H]4C[C@@H]4C(=O)O)nc3)ccc2C(F)(F)F)cc1 [Example 2, (1S,2S)-2-(5-{[4′-(3-Hydroxy-3-methyl-butoxy)-6-trifluoromethyl-biphenyl-3-ylmethyl]-amino}-pyridin-2-yl)-cyclopropanecarboxylic acid]
[1]
  EC50: 17 nM
[2]; [4]
  solubility at 24 h: 72 µg/mL (≈ 140 µM)

## Cc1cc(OCc2ccccc2)cc(C)c1-c1ccc(F)c(CNc2ccc([C@H]3C[C@@H]3C(=O)O)nc2)c1 [Example 12]
[1]
  EC50: 44 nM
[2]; pH 2.2
  Solubility at pH value 2.2: 27 μg/mL

## Cc1cc(CO)cc(C)c1-c1ccc(F)c(CNc2ccc([C@H]3C[C@@H]3C(=O)O)nc2)c1 [Example 22]
[1]
  EC50: 206 nM
[2]; pH 2.2
  Solubility at pH value 2.2: 48 μg/mL

## COc1cc(OC)c(-c2ccc(F)c(CNc3ccc([C@H]4C[C@@H]4C(=O)O)nc3)c2)c(OC)c1 [Example 31]
[1]
  EC50: 453 nM
[2]; pH 2.2
  Solubility at pH value 2.2: 88 μg/mL

## Cc1cc(OCCCS(C)(=O)=O)cc(C)c1-c1cccc(CNc2ccc([C@H]3CC3C(=O)O)nc2)c1 (stereo partly drawn) [Example 1]
[1]
  EC50: 50 nM
[2]; [4]
  solubility at 24 h: 83 µg/mL (≈ 163 µM)

## Cc1cc(OCC(C)(C)C#N)cc(C)c1-c1ccc(F)c(CNc2ccc([C@H]3C[C@@H]3C(=O)O)nc2)c1 [Example 13]
[1]
  EC50: 59 nM
[2]; pH 2.2
  Solubility at pH value 2.2: 49 μg/mL

## Cc1ccc(Cl)c(-c2ccc(F)c(CNc3ccc([C@H]4C[C@@H]4C(=O)O)nc3)c2)c1Cl [Example 36]
[1]
  EC50: 35 nM
[2]; pH 2.2
  Solubility at pH value 2.2: 43 μg/mL

## Cc1cc(-c2ccnn2C)cc(C)c1-c1ccc(F)c(CNc2ccc([C@H]3C[C@@H]3C(=O)O)nc2)c1 [Example 55]
[1]
  EC50: 12 nM
[2]; pH 2.2
  Solubility at pH value 2.2: 53 μg/mL

## Cc1cnc(-c2cc(C)c(-c3ccc(F)c(CNc4ccc([C@H]5C[C@@H]5C(=O)O)nc4)c3)c(C)c2)nc1 [Example 51]
[1]
  EC50: 6 nM
[2]; [4]
  Solubility at pH value 2.2: 58 μg/mL

## COc1cc(F)c(-c2ccc(F)c(CNc3ccc([C@H]4C[C@@H]4C(=O)O)nc3)c2)c(F)c1 [Example 40]
[1]
  EC50: 988 nM
[2]; pH 2.2
  Solubility at pH value 2.2: 62 μg/mL

## COc1cc(OC)c(F)c(-c2ccc(F)c(CNc3ccc([C@H]4C[C@@H]4C(=O)O)nc3)c2)c1F [Example 52]
[1]
  EC50: 836 nM
[2]; pH 2.2
  Solubility at pH value 2.2: 62 μg/mL

## O=C(O)[C@H]1C[C@@H]1c1ccc(NCc2cc(-c3c(F)cccc3F)ccc2F)cn1 [Example 39]
[1]
  EC50: 435 nM
[2]; pH 2.2
  Solubility at pH value 2.2: 46 μg/mL

## Cc1cc(OCC2(O)CCSCC2)cc(C)c1-c1ccc(F)c(CNc2ccc([C@H]3C[C@@H]3C(=O)O)nc2)c1 [Example 48]
[1]
  EC50: 56 nM
[2]; pH 2.2
  Solubility at pH value 2.2: 67 μg/mL

## Cc1cc(C(=O)NCC(C)(C)O)cc(C)c1-c1ccc(F)c2c1CC[C@H]2Oc1ccc([C@H]2C[C@@H]2C(=O)O)cc1 [WO 2013/178575 Example 15, reference compound]
[2]; [3]
  solubility at 24 h: < 1 µg/mL

## CC(C)c1ccccc1-c1ccc(F)c(CNc2ccc([C@H]3C[C@@H]3C(=O)O)nc2)c1 [Example 50]
[1]
  EC50: 81 nM
[2]; [4]
  Solubility at pH value 2.2: 48 μg/mL

## O=C(O)[C@H]1C[C@@H]1c1ccc(NCc2cc(-c3c(Cl)cccc3Cl)ccc2F)cn1 [Example 30]
[1]
  EC50: 34 nM
[2]; pH 2.2
  Solubility at pH value 2.2: 53 μg/mL

## Cc1cc(-c2nnn(C)n2)cc(C)c1-c1ccc(F)c2c1CC[C@H]2Oc1ccc([C@H]2C[C@@H]2C(=O)O)cc1 [WO 2013/178575 Example 45, reference compound]
[2]; [3]
  solubility at 24 h: < 1 µg/mL

## Cc1c(C#N)cccc1-c1ccc(F)c2c1CC[C@H]2Oc1ccc([C@H]2C[C@@H]2C(=O)O)cc1 [WO 2013/178575 Example 54, reference compound]
[2]; [3]
  solubility at 24 h: < 1 µg/mL
